From US7208482B2, “9-aminoacyl tetracycline compounds and methods of use thereof” (Paratek Pharmaceuticals, Inc., priority 2001, dated 2007)
≈ marks a conversion by molar mass, not a printed value.

What was measured:
Assay in all cases: MIC, broth microdilution growth inhibition
Assay type in all cases: cell-based
Settings in all cases: Mueller-Hinton broth, 5×10^5 CFU/ml, 37° C., 18 h
[1] = system: E. coli 1850E
Procedure: (§1) Growth-inhibitory activity was determined on liquid medium by the antibiotic dilution technique using 96-well microtiter system plates containing two-fold dilutions of antibiotic-agent in 0.2 ml. of Mueller-Hinton broth. Plates were inoculated with each test organism to yield a final inoculum of 5×10^5 CFU/ml and were incubated aerobically at 37° C. for 18 h. The MIC was defined as the lowest concentration of antibacterial agent that inhibited development of visible growth in the microdilution wells.

[2] = system: E. hirae ATCC 9790
Procedure: as §1

[3] = system: H. influenzae ATCC 49247
Procedure: as §1

[4] = system: M. catarrhalis ATCC 23246
Procedure: as §1

[5] = system: S. aureus ATCC 29213
Procedure: as §1

[6] = system: S. aureus RN4250
Procedure: as §1

[7] = system: S. aureus RN450
Procedure: as §1

[8] = system: S. pneumoniae ATCC 49619
Procedure: as §1

[9] = system: S. aureus ATCC 13709
Procedure: as §1

[10] = system: E. coli ATCC 25933
Procedure: as §1

[11] = system: S. pneumoniae 157E
Procedure: as §1

SMILES	MIC [1] [µg/mL]	MIC [2] [µg/mL]	MIC [3] [µg/mL]	MIC [4] [µg/mL]	MIC [5] [µg/mL]	MIC [6] [µg/mL]	MIC [7] [µg/mL]	MIC [8] [µg/mL]	MIC [9] [µg/mL]	MIC [10] [µg/mL]	MIC [11] [µg/mL]
CCOC(=O)CNc1cc(N(C)C)c2c(c1O)C(=O)C1=C(O)[C@]3(O)C(=O)C(C(N)=O)=C(O)[C@@H](N(C)C)[C@@H]3C[C@@H]1C2 [Example 1, [4S-(4a,5a,12a)]-4,7-Bis(dimethylamino)-9-[(ethoxycarbonyl)methyl]amino-1,4,4a,5,5a,6,11,12a-octahydro-3,10,12,12a-tetrahydroxy-1,11-dioxo-2-naphtacenecarboxamide]	32 (≈ 57.3 µM)	8 (≈ 14.3 µM)	32 (≈ 57.3 µM)	4 (≈ 7.16 µM)	16 (≈ 28.6 µM)	16 (≈ 28.6 µM)	16 (≈ 28.6 µM)	32 (≈ 57.3 µM)	–	–	–
CCOC(=O)CNc1ccc2c(c1O)C(=O)C1=C(O)[C@]3(O)C(=O)C(C(N)=O)=C(O)[C@@H](N(C)C)[C@@H]3[C@@H](O)[C@@H]1[C@H]2C [Example 3, [4S-(4a,5,5a,6,12a)]-4-(Dimethylamino)-9-[(ethoxycarbonyl)methyl]amino-1,4,4a,5,5a,6,11,12a-octahydro-3,5,10,12,12a-pentahydroxy-6-methyl-1,11-dioxo-2-naphtacenecarboxamide]	32 (≈ 58.7 µM)	1 (≈ 1.83 µM)	8 (≈ 14.7 µM)	2 (≈ 3.67 µM)	–	2 (≈ 3.67 µM)	0.5 (≈ 0.917 µM)	0.5 (≈ 0.917 µM)	1 (≈ 1.83 µM)	–	–
C[C@H]1c2ccc(NCC(=O)N(C)C)c(O)c2C(=O)C2=C(O)[C@]3(O)C(=O)C(C(N)=O)=C(O)[C@@H](N(C)C)[C@@H]3[C@@H](O)[C@@H]21 [Example 4, [4S-(4a,5,5a,6,12a)]-4-(Dimethylamino)-9-[(N,N-dimethylaminocarbonyl)methyl]amino-1,4,4a,5,5a,6,11,12a-octahydro-3,5,10,12,12a-pentahydroxy-6-methyl-1,11-dioxo-2-naphtacenecarboxamide]	–	–	2 (≈ 3.67 µM)	–	0.5 (≈ 0.918 µM)	–	–	0.06 (≈ 0.11 µM)	–	2 (≈ 3.67 µM)	–
CCOC(=O)C(C)Nc1ccc2c(c1O)C(=O)C1=C(O)[C@]3(O)C(=O)C(C(N)=O)=C(O)[C@@H](N(C)C)[C@@H]3[C@@H](O)[C@@H]1[C@H]2C (stereo partly drawn) [Example 2, [4S-(4a,5,5a,6,12a)]-4-(Dimethylamino)-9-[1-(ethoxycarbonyl)ethyl]amino-1,4,4a,5,5a,6,11,12a-octahydro-3,5,10,12,12a-pentahydroxy-6-methyl-1,11-dioxo-2-naphtacenecarboxamide]	64 (≈ 114 µM)	0.25 (≈ 0.447 µM)	32 (≈ 57.2 µM)	1 (≈ 1.79 µM)	–	2 (≈ 3.57 µM)	0.25 (≈ 0.447 µM)	0.5 (≈ 0.894 µM)	0.5 (≈ 0.894 µM)	–	1 (≈ 1.79 µM)
